Reference: patent US9687479B2, “Multisubstituted aromatic compounds as serine protease inhibitors” (VERSEON CORPORATION, priority 2013, dated 2017)

Columns and labels:
Human KLKB1 = Human KLKB1 (Homo sapiens (Human), UniProt P03952); assay: KLKB1 kallikrein activity inhibition assay (chromogenic substrate S-2302); assay type: biochemical
Experimental: The KLKB1 kallikrein activity reported herein (e.g., Tables B, C, and D) was obtained as follows. Human KLKB1 protein was obtained from Enzyme Research Labs. […] KLKB1 was assayed in buffer containing 0.05 M Tris (pH 7.4), 0.01 M NaCl and 0.2% w/v PEG-8000. The final concentration of enzyme used was 3 nM KLKB1. […] All assays were performed in 96-well microtiter plates at room temperature (RT). […] Inhibitor IC50 values were determined by adding test compound as ten point, three-fold serial dilutions in buffer solution, as known in the art. The plate was read at 10 minutes after substrate addition. The IC50 was calculated by plotting the percent (%) inhibition against compound concentration and fitting the data to a constrained four parameter sigmoidal curve, as known in the art.

Human thrombin = Human thrombin (Homo sapiens (Human), UniProt P00734); assay: Thrombin protease activity inhibition assay (chromogenic substrate S-2238); assay type: biochemical; settings: 3 nM thrombin, 125 μM S-2238, 10 min pre-incubation, RT
Method in brief: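 Thrombin at 3 nM final in 0.05 M Tris pH 7.4, 0.015 M NaCl, 0.01% PEG-8000, at room temperature; compounds as ten-point three-fold dilutions.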

[1] = 3 nM KLKB1, 250 μM S-2302, 10 min pre-incubation, RT

Sequence of Human KLKB1 (P03952 391-638 limits assumed): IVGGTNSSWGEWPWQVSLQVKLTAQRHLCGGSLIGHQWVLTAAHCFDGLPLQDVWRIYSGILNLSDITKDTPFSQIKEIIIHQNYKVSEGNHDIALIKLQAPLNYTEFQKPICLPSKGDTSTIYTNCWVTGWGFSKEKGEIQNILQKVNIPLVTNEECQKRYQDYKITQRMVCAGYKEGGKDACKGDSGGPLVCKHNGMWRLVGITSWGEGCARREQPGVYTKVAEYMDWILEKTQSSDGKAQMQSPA
Sequence of Human KLKB1 (P03952 20-390 partner limits assumed): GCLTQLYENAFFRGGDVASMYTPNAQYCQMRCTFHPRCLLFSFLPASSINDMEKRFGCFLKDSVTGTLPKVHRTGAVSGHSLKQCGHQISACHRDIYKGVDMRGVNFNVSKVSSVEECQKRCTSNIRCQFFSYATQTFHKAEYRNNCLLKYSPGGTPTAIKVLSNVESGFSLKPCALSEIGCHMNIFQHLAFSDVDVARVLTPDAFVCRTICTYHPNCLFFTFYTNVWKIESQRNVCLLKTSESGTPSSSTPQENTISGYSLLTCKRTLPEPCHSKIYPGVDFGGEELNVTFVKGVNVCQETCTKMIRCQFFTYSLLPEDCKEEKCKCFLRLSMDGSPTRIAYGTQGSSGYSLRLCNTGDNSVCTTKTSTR

Row | Compound | IC50 (Human KLKB1; Table B) [µM] | IC50 (Human thrombin) [µM] | IC50 (Human KLKB1; [1]) [µM]
1 | O=C(c1ccoc1)n1nc(-c2cccn(Cc3cccs3)c2=O)cc1NCc1ccc(Cl)s1 [Cmpd 5, 3-(5-[(5-chlorothiophen-2-yl)methyl]amino-1-[(furan-3-yl)carbonyl]-1H-pyrazol-3-yl)-1-(thiophen-2-ylmethyl)-1,2-dihydropyridin-2-one] | 1 to 10 | < 0.1 | –
2 | COc1ccc(C(=O)n2nc(-c3cccn(Cc4ccccc4)c3=O)cc2NCc2ccc(Cl)s2)c(OC)c1 [Cmpd 46, 1-benzyl-3-(5-[(5-chlorothiophen-2-yl)methyl]amino-1-[(2,4-dimethoxyphenyl)carbonyl]-1H-pyrazol-3-yl)-1,2-dihydropyridin-2-one] | 10 to 100 | < 0.1 | –
3 | CC1(C(=O)n2nc(-c3cccn(Cc4ccccc4)c3=O)cc2NCc2ccc(Cl)s2)CCOCC1 [Cmpd 48, 1-benzyl-3-(5-[(5-chlorothiophen-2-yl)methyl]amino-1-[(4-methyloxan-4-yl)carbonyl]-1H-pyrazol-3-yl)-1,2-dihydropyridin-2-one] | > 100 | < 0.1 | –
4 | O=C(c1ccco1)n1nc(-c2cccn(Cc3ccccc3)c2=O)cc1NCc1ccc(Cl)s1 [Cmpd 49, 1-benzyl-3-(5-[(5-chlorothiophen-2-yl)methyl]amino-1-[(furan-2-yl)carbonyl]-1H-pyrazol-3-yl)-1,2-dihydropyridin-2-one] | 0.1 to 1 | < 0.1 | –
5 | O=C(c1ccoc1)n1nc(-c2cccn(Cc3ccccc3)c2=O)cc1NCc1ccc(Cl)s1 [Cmpd 50, 1-benzyl-3-(5-[(5-chlorothiophen-2-yl)methyl]amino-1-[(furan-3-yl)carbonyl]-1H-pyrazol-3-yl)-1,2-dihydropyridin-2-one] | 10 to 100 | < 0.1 | –
6 | O=C(c1cccs1)n1nc(-c2cccn(Cc3ccccc3)c2=O)cc1NCc1ccc(Cl)s1 [Cmpd 51, 1-benzyl-3-(5-[(5-chlorothiophen-2-yl)methyl]amino-1-[(thiophen-2-yl)carbonyl]-1H-pyrazol-3-yl)-1,2-dihydropyridin-2-one] | > 100 | < 0.1 | –
7 | O=C(c1ccsc1)n1nc(-c2cccn(Cc3ccccc3)c2=O)cc1NCc1ccc(Cl)s1 [Cmpd 52, 1-benzyl-3-(5-[(5-chlorothiophen-2-yl)methyl]amino-1-[(thiophen-3-yl)carbonyl]-1H-pyrazol-3-yl)-1,2-dihydropyridin-2-one] | 0.1 to 1 | < 0.1 | –
8 | O=C(c1ccc(N2CCOCC2)cc1)n1nc(-c2cccn(Cc3ccccc3)c2=O)cc1NCc1ccc(Cl)s1 [Cmpd 53, 1-benzyl-3-(5-[(5-chlorothiophen-2-yl)methyl]amino-1-[4-(morpholin-4-yl)phenyl]carbonyl-1H-pyrazol-3-yl)-1,2-dihydropyridin-2-one] | > 100 | < 0.1 | –
9 | COCCn1cccc(-c2cc(NCc3ccc(Cl)s3)n(C(=O)c3ccccc3)n2)c1=O [Cmpd 62, 3-(1-benzoyl-5-[(5-chlorothiophen-2-yl)methyl]amino-1H-pyrazol-3-yl)-1-(2-methoxyethyl)-1,2-dihydropyridin-2-one] | 1 to 10 | < 0.1 | –
10 | Cn1cccc(-c2cc(NCc3ccc(Cl)s3)n(C(=O)c3ccccc3)n2)c1=O [Cmpd 73, 3-(1-benzoyl-5-[(5-chlorothiophen-2-yl)methyl]amino-1H-pyrazol-3-yl)-1-methyl-1,2-dihydropyridin-2-one] | > 100 | < 0.1 | –
11 | CC(C)(C)C(=O)n1nc(-c2cccn(Cc3ccco3)c2=O)cc1NCc1ccc(Cl)s1 [Cmpd 77, 3-(5-[(5-chlorothiophen-2-yl)methyl]amino-1-(2,2-dimethylpropanoyl)-1H-pyrazol-3-yl)-1-(furan-2-ylmethyl)-1,2-dihydropyridin-2-one] | > 100 | < 0.1 | –
12 | COCCn1cccc(-c2cc(NCc3ccc(Cl)s3)n(C(=O)C(C)(C)CO)n2)c1=O [Cmpd 92, 3-(5-[(5-chlorothiophen-2-yl)methyl]amino-1-(3-hydroxy-2,2-dimethylpropanoyl)-1H-pyrazol-3-yl)-1-(2-methoxyethyl)-1,2-dihydropyridin-2-one] | 10 to 100 | < 0.1 | –
13 | CC(C)(CO)C(=O)n1nc(-c2cccn(Cc3ccco3)c2=O)cc1NCc1ccc(Cl)s1 [Cmpd 93, 3-(5-[(5-chlorothiophen-2-yl)methyl]amino-1-(3-hydroxy-2,2-dimethylpropanoyl)-1H-pyrazol-3-yl)-1-(furan-2-ylmethyl)-1,2-dihydropyridin-2-one] | 10 to 100 | < 0.1 | –
14 | CC(C)(CO)C(=O)n1nc(-c2cccn(Cc3cccnc3)c2=O)cc1NCc1ccc(Cl)s1 [Cmpd 94, 3-(5-[(5-chlorothiophen-2-yl)methyl]amino-1-(3-hydroxy-2,2-dimethylpropanoyl)-1H-pyrazol-3-yl)-1-(pyridin-3-ylmethyl)-1,2-dihydropyridin-2-one] | 1 to 10 | < 0.1 | –
15 | COCC(C)(C)C(=O)n1nc(-c2cccn(Cc3ccco3)c2=O)cc1NCc1ccc(Cl)s1 [Cmpd 98, 3-(5-[(5-chlorothiophen-2-yl)methyl]amino-1-(3-methoxy-2,2-dimethylpropanoyl)-1H-pyrazol-3-yl)-1-(furan-2-ylmethyl)-1,2-dihydropyridin-2-one] | > 100 | < 0.1 | –
16 | COCC(C)(C)C(=O)n1nc(-c2cccn(Cc3cccnn3)c2=O)cc1NCc1ccc(Cl)s1 [Cmpd 100, 3-(5-[(5-chlorothiophen-2-yl)methyl]amino-1-(3-methoxy-2,2-dimethylpropanoyl)-1H-pyrazol-3-yl)-1-(pyridazin-3-ylmethyl)-1,2-dihydropyridin-2-one] | 1 to 10 | < 0.1 | –
17 | COCC(C)(C)C(=O)n1nc(-c2cccn(Cc3ccccn3)c2=O)cc1NCc1ccc(Cl)s1 [Cmpd 101, 3-(5-[(5-chlorothiophen-2-yl)methyl]amino-1-(3-methoxy-2,2-dimethylpropanoyl)-1H-pyrazol-3-yl)-1-(pyridin-2-ylmethyl)-1,2-dihydropyridin-2-one] | 10 to 100 | < 0.1 | –
18 | O=C(NCc1ccc2[nH]cc(Cl)c2c1)[C@@H]1CC(=O)N(Cc2ccc(Cl)cc2)C1 [Cmpd 414, (3R)-N-[(3-chloro-1H-indol-5-yl)methyl]-1-[(4-chlorophenyl)methyl]-5-oxopyrrolidine-3-carboxamide] | – | – | > 100
19 | O=C(NCc1ccc2[nH]cc(Cl)c2c1)[C@H]1CC(=O)N(Cc2ccccc2)C1 [Cmpd 415, (3S)-1-benzyl-N-[(3-chloro-1H-indol-5-yl)methyl]-5-oxopyrrolidine-3-carboxamide] | – | – | > 100
20 | Cn1cc(Cl)c2cc(CNC(=O)[C@H]3CC(=O)N(Cc4ccc(Cl)cc4)C3)ccc21 [Cmpd 416, (3S)-N-[(3-chloro-1-methyl-1H-indol-5-yl)methyl]-1-[(4-chlorophenyl)methyl]-5-oxopyrrolidine-3-carboxamide] | – | – | 10 to 100
21 | O=C(NCc1ccc2[nH]cc(Cl)c2c1)[C@H]1CC(=O)N(Cc2ccccc2Cl)C1 [Cmpd 417, (3S)-N-[(3-chloro-1H-indol-5-yl)methyl]-1-[(2-chlorophenyl)methyl]-5-oxopyrrolidine-3-carboxamide] | – | – | 10 to 100
22 | O=C(NCc1ccc2[nH]cc(Cl)c2c1)[C@H]1CC(=O)N(Cc2cccc(Cl)c2)C1 [Cmpd 418, (3S)-N-[(3-chloro-1H-indol-5-yl)methyl]-1-[(3-chlorophenyl)methyl]-5-oxopyrrolidine-3-carboxamide] | – | – | > 100
23 | Cc1cc(N(C)c2ccccc2F)nc(N[C@@H]2CCc3c(N)cccc3C2)n1 [Cmpd 419, 2-N-[(2R)-5-amino-1,2,3,4-tetrahydronaphthalen-2-yl]-4-N-(2-fluorophenyl)-4-N,6-dimethylpyrimidine-2,4-diamine] | – | – | > 100
24 | Cc1cc(N(C)c2cccc(F)c2)nc(N[C@@H]2CCc3c(N)cccc3C2)n1 [Cmpd 420, 2-N-[(2R)-5-amino-1,2,3,4-tetrahydronaphthalen-2-yl]-4-N-(3-fluorophenyl)-4-N,6-dimethylpyrimidine-2,4-diamine] | – | – | > 100
25 | Cc1cc(N(C)c2ccc(F)cc2)nc(N[C@@H]2CCc3c(N)cccc3C2)n1 [Cmpd 421, 2-N-[(2R)-5-amino-1,2,3,4-tetrahydronaphthalen-2-yl]-4-N-(4-fluorophenyl)-4-N,6-dimethylpyrimidine-2,4-diamine] | – | – | > 100
26 | Cc1cc(N(C)c2ccccc2)nc(N[C@H]2CCc3c(N)cccc3C2)n1 [Cmpd 422, 2-N-[(2S)-5-amino-1,2,3,4-tetrahydronaphthalen-2-yl]-4-N,6-dimethyl-4-N-phenylpyrimidine-2,4-diamine] | – | – | > 100
27 | Cc1cc(N(C)c2ccccc2Cl)nc(N[C@H]2CCc3c(N)cccc3C2)n1 [Cmpd 423, 2-N-[(2S)-5-amino-1,2,3,4-tetrahydronaphthalen-2-yl]-4-N-(2-chlorophenyl)-4-N,6-dimethylpyrimidine-2,4-diamine] | – | – | 10 to 100
28 | Cc1cc(N(C)c2cccc(Cl)c2)nc(N[C@H]2CCc3c(N)cccc3C2)n1 [Cmpd 424, 2-N-[(2S)-5-amino-1,2,3,4-tetrahydronaphthalen-2-yl]-4-N-(3-chlorophenyl)-4-N,6-dimethylpyrimidine-2,4-diamine] | – | – | > 100
29 | Cc1cc(N(C)c2ccc(Cl)cc2)nc(N[C@H]2CCc3c(N)cccc3C2)n1 [Cmpd 425, 2-N-[(2S)-5-amino-1,2,3,4-tetrahydronaphthalen-2-yl]-4-N-(4-chlorophenyl)-4-N,6-dimethylpyrimidine-2,4-diamine] | – | – | > 100
